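In this assay, cells in 96-well plates receive the compound at five concentrations for 48 hours. Endpoints are linearly interpolated between the surrounding concentrations. GI50 marks 50% less growth.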 Activity calls are given as the source filed them. Cut-off read from the data, not from the text of the source: active = GI50 up to about 1.1 µM and inactive = higher.
Experiments:
Assay in all cases: NCI tumour cell line growth inhibition, 48 h
786-0 = test system: 786-0
DU-145 = test system: DU-145
EKVX = test system: EKVX
HCT-116 = test system: HCT-116
K562 = test system: K562
LOX IMVI = test system: LOX IMVI
MCF7 = test system: MCF7
MDA-MB-231 = test system: MDA-MB-231
MDA-N = test system: MDA-N
Malme-3M = test system: Malme-3M
NCI-H460 = test system: NCI-H460
RXF 393 = test system: RXF 393
SF-268 = test system: SF-268
SK-OV-3 = test system: SK-OV-3
SN12C = test system: SN12C
SW-620 = test system: SW-620
TK-10 = test system: TK-10
U-251 = test system: U-251
UACC-62 = test system: UACC-62
OVCAR-4 = test system: OVCAR-4

Measured: GI50

COc1cccc2nc3ccccc3nc12
inactive: 786-0 74.1 µM | DU-145 > 100 µM | EKVX 86.7 µM | HCT-116 38.5 µM | K562 80.2 µM | LOX IMVI 38.8 µM | MCF7 54.7 µM | MDA-MB-231 67.6 µM | MDA-N > 100 µM | Malme-3M > 100 µM | NCI-H460 39.8 µM | RXF 393 39.3 µM | SF-268 87.9 µM | SK-OV-3 > 100 µM | SN12C 71.4 µM | SW-620 45.8 µM | TK-10 66.1 µM | U-251 55.5 µM | UACC-62 50.9 µM

CN1CCN(C(=S)N(C(=O)c2cccs2)c2ccccc2)CC1
inactive: 786-0 > 100 µM | DU-145 > 100 µM | K562 > 100 µM | LOX IMVI > 100 µM | MCF7 > 100 µM | MDA-MB-231 > 100 µM | MDA-N > 100 µM | Malme-3M > 100 µM | NCI-H460 > 100 µM | OVCAR-4 > 100 µM | RXF 393 > 100 µM | SF-268 > 100 µM | SN12C > 100 µM | SW-620 > 100 µM | TK-10 > 100 µM | U-251 > 100 µM | UACC-62 > 100 µM

CCSc1nc(C)nc2c1sc1nc3ccccc3n12
inactive: 786-0 > 100 µM | DU-145 > 100 µM | EKVX > 100 µM | HCT-116 > 100 µM | K562 > 100 µM | LOX IMVI > 100 µM | MCF7 > 100 µM | MDA-MB-231 > 100 µM | MDA-N > 100 µM | NCI-H460 > 100 µM | OVCAR-4 > 78.3 µM | RXF 393 > 100 µM | SF-268 > 100 µM | SK-OV-3 > 100 µM | SN12C > 100 µM | SW-620 > 100 µM | TK-10 > 100 µM | U-251 > 100 µM | UACC-62 > 100 µM

O=C1ON=C2C3CC4CC12CC1(C3)C(=O)ON=C41
inactive: 786-0 > 100 µM | DU-145 > 100 µM | EKVX > 100 µM | HCT-116 > 100 µM | K562 > 100 µM | LOX IMVI > 100 µM | MCF7 > 100 µM | MDA-MB-231 > 100 µM | MDA-N > 100 µM | Malme-3M > 100 µM | NCI-H460 > 100 µM | OVCAR-4 > 100 µM | RXF 393 > 100 µM | SN12C > 100 µM | SW-620 > 100 µM | U-251 > 100 µM | UACC-62 > 100 µM

CO/C(=N\N=C\c1cccc(Cl)c1)c1ccncc1
inactive: 786-0 > 10 µM | DU-145 > 10 µM | EKVX > 10 µM | HCT-116 > 10 µM | K562 > 10 µM | LOX IMVI > 10 µM | MCF7 > 10 µM | MDA-MB-231 > 10 µM | MDA-N > 10 µM | Malme-3M > 10 µM | NCI-H460 > 10 µM | OVCAR-4 > 10 µM | RXF 393 > 10 µM | SF-268 > 10 µM | SN12C > 10 µM | SW-620 > 10 µM | TK-10 > 10 µM | U-251 > 10 µM

Cc1ccc(CCCCCOc2ccc(C3=NCCO3)cc2)s1
inactive: 786-0 > 100 µM | DU-145 > 100 µM | EKVX > 100 µM | HCT-116 > 100 µM | K562 9.29 µM | MCF7 > 100 µM | MDA-MB-231 > 100 µM | MDA-N 5.68 µM | Malme-3M > 100 µM | NCI-H460 > 100 µM | OVCAR-4 > 100 µM | RXF 393 > 100 µM | SF-268 > 100 µM | SK-OV-3 > 100 µM | SN12C > 100 µM | SW-620 > 100 µM | TK-10 > 100 µM | U-251 > 100 µM | UACC-62 > 100 µM

CCC1OC2(C)CC(C#N)(C#N)C1(C#N)C(=N)O2 (stereo unspecified)
inactive: 786-0 > 100 µM | DU-145 > 100 µM | EKVX > 100 µM | HCT-116 > 100 µM | K562 > 100 µM | LOX IMVI > 100 µM | MCF7 > 100 µM | MDA-MB-231 > 100 µM | MDA-N > 100 µM | Malme-3M > 100 µM | RXF 393 > 100 µM | SF-268 > 100 µM | SK-OV-3 > 100 µM | SN12C > 100 µM | SW-620 > 100 µM | TK-10 > 100 µM | U-251 > 100 µM | UACC-62 > 100 µM

CCOC(=O)c1nc2cc(N3CCOCC3)c(F)cc2[nH]c1=O
inactive: 786-0 > 100 µM | DU-145 > 100 µM | EKVX 4.67 µM | HCT-116 > 100 µM | K562 > 100 µM | MCF7 > 100 µM | MDA-MB-231 > 100 µM | MDA-N > 100 µM | Malme-3M > 100 µM | NCI-H460 > 100 µM | OVCAR-4 > 100 µM | RXF 393 > 100 µM | SF-268 > 100 µM | SK-OV-3 > 100 µM | SN12C > 100 µM | SW-620 > 100 µM | TK-10 > 100 µM | U-251 > 100 µM | UACC-62 92.9 µM

CCOc1ccc(NC(=O)/C=C/c2ccco2)cc1
inactive: 786-0 > 100 µM | DU-145 47 µM | EKVX 87.3 µM | HCT-116 41.2 µM | K562 24.2 µM | LOX IMVI 54.3 µM | MCF7 75.2 µM | MDA-MB-231 > 100 µM | MDA-N 12.3 µM | Malme-3M > 100 µM | NCI-H460 43.8 µM | RXF 393 67.1 µM | SF-268 78.7 µM | SK-OV-3 32.4 µM | SN12C 79.6 µM | SW-620 > 100 µM | TK-10 > 100 µM | U-251 33.8 µM | UACC-62 > 100 µM

O=C(Nc1nc(C23CC4CC(CC(C4)C2)C3)cs1)c1cc2cc([N+](=O)[O-])ccc2oc1=O
inactive: 786-0 17.7 µM | DU-145 86.7 µM | EKVX 53 µM | HCT-116 37 µM | K562 > 100 µM | LOX IMVI 47.1 µM | MCF7 56.8 µM | MDA-MB-231 20.9 µM | MDA-N > 100 µM | Malme-3M 46.2 µM | NCI-H460 52.6 µM | OVCAR-4 17.8 µM | RXF 393 19.2 µM | SF-268 26.2 µM | SN12C > 100 µM | SW-620 33.6 µM | TK-10 > 100 µM | U-251 43 µM

Cc1cc(Cl)ccc1NC(=O)/C(CC(=O)CC(c1ccccc1)c1c(O)c2ccccc2oc1=O)=N\O (stereo unspecified)
inactive: 786-0 > 100 µM | DU-145 > 100 µM | EKVX > 100 µM | HCT-116 > 100 µM | LOX IMVI > 100 µM | MCF7 > 100 µM | MDA-MB-231 > 100 µM | MDA-N > 100 µM | NCI-H460 > 100 µM | OVCAR-4 > 100 µM | RXF 393 > 100 µM | SF-268 > 100 µM | SK-OV-3 > 100 µM | SN12C > 100 µM | SW-620 > 100 µM | TK-10 > 100 µM | U-251 > 100 µM | UACC-62 > 100 µM

— ChEMBL document CHEMBL1201862, “PubChem BioAssay data set” (2004)
